We go through 38 compounds from patent US6586413B2, “Methods and compositions for reducing ischemic injury of the heart by administering adenosine receptor agonists and antagonists” (The United States of America as represented by the …, priority 1999, dated 2003).

For data set [1], the system named is isolated cardiac myocytes. The data set can be described thus: Apoptotic cell death by DNA laddering on 1.5% agarose gel. Type of data set: cell-based. Particulars: no ischemia; agents that increase intracellular calcium. As for the experimental part: Such smearing is indicative of a culmination of the apoptotic cell death pathway. Isolated cardiac myocytes were exposed to 90-min ischemia and 30-min reoxygenation (lanes 4 and 5). […] Lanes 1 and 2 represent myocytes not exposed to ischemia or any agent. Data were representative of three experiments.
Isolated cardiac myocytes were exposed to prolonged moderate simulated ischemia (17 hours with 2-3% O2). Lane 3 represents myocytes not exposed to ischemia or any agent. Lane 5 represents myocytes exposed to 17 hours of ischemia. […] Data were representative of three experiments.
Lane 3 represents myocytes not exposed to any agent. Lane 5 represents cardiac myocytes exposed (for three hours) to an agent (a P2X receptor agonist, 2-methylthioATP) known to increase intracellular calcium concentration. Prolonged exposure to 2-methylthioATP or UTP caused increased apoptosis (Lane 7). […] Data were representative of two experiments.
The effects of agents which target the adenosine receptor on apoptosis were initially examined in isolated cardiac myocytes exposed to ischemia (for 90 minutes and 30 minutes of reoxygenation) or agents which increase intracellular calcium levels. Increasing the level of intracellular calcium concentration induces non-ischemia-related apoptosis in vitro. Apoptotic cell death of cardiac myocytes was assessed by determining the extent of smearing or “DNA laddering” on 1.5% agarose gels.
For orientation: A change in cytosolic calcium serves as a functional read-out for many receptors and channels.

In data set [2] the test system is cardiac ventricular myocytes cultured from chick embryos. The data set can be described thus: Hypoxia-induced myocyte injury, agent present during prolonged (90 min) hypoxia with glucose deprivation. Type of data set: cell-based. To be noted: for cardioprotective effect when present during prolonged hypoxia (CK released, % myocytes killed): agonist present during prolonged hypoxia/simulated ischemia; for effect of antagonist on A1 agonist (CCPA, CHA, ADAC)-induced cardioprotection: antagonist with A1 agonist during prolonged hypoxia; for effect of antagonist on A3 agonist (IB-MECA, Cl-IB-MECA)-induced cardioprotection: antagonist with A3 agonist during prolonged hypoxia. The procedure:
Ventricular cells were cultured from chick embryos 14 days in ovo as previously described (16, 23). Cells were cultivated in a humidified 5% CO2-95% air mixture at 37° C. […] The medium was changed to a HEPES-buffered medium containing (mM) 139 NaCl, 4.7 KCl, 0.5 MgCl2, 0.9 CaCl2, 5 HEPES (N-2-hydroxyethylpiperazine-N′-2-ethanesulfonic acid) and 2% fetal bovine serum, pH 7.4, 37° C. before exposing the myocytes to the various conditions at 37° C. Control myocytes were maintained in the HEPES-buffered media under room air. Ninety-minute exposure of the myocytes to hypoxia with glucose deprivation was used to induce cell injury. Hypoxia was produced by placing the cells in a hypoxic incubator (NuAire) where O2 was replaced by N2 as previously described (16,23). Effects of adenosine receptor agonists and antagonists on the extent of myocyte injury were determined by exposure of the prepared cells to these agents during the prolonged hypoxia.
(§1) Determination of myocyte injury was made at the end of the ninety-minute hypoxia, at which time myocytes were taken out of the hypoxic incubator and re-exposed to room air (normal % O2). Aliquots of the media were then obtained for creatine kinase (CK) activity measurement, which is followed by quantitation of the number of viable cells. Measurement of basal level of cell injury was made after parallel incubation of control cells under normal % O2. The extent of hypoxia-induced injury to the ventricular cell was quantitatively determined by the percentages of cells killed and by the amount of CK released into the media according to a previously described method (16, 23). […] In brief, the media were replaced with a trypsin-EDTA buffer to detach the cells, which was then followed by sedimentation of the viable myocytes. Parallel changes in % cells killed and CK released (16, 23) further validated this assay for % cells killed. The amount of CK was measured as enzyme activity (unit/mg), and increases in CK activity above the control level were determined. The percentage of cells killed was calculated as the number of cells obtained from the control group (representing cells not subjected to any hypoxia or drug treatment) minus the number of cells from the treatment group divided by number of cells in control group multiplied by 100%.

In data set [3] the test system is Rat Brain A1 and A2-Receptors. Particulars: cited from earlier work; for A1/A2 ratio: rat brain, reference 31; for A1/A2 ratio, value in square brackets: second value printed in brackets below, brackets not explained.
The test system of data set [4] is ventricular myocytes cultured from chick embryos. Briefly: Pharmacological preconditioning: 5 min exposure to agent, then 90 min simulated ischemia. Format: cell-based. To be noted: for effect of PLD inhibition on protective effect of MRS1760: ethanol (0.5%) or propranolol (100 μM) with 10 nM MRS1760. As for the experimental part:
FIG. 14 is a graph showing that the partial A1 receptor agonist, 8-butylaminoCPA, mimics the cardioprotective effect of ischemic preconditioning. Ventricular myocytes were cultured from chick embryos 14 days in ovo. The ability of the partial A1 agonist, 8-butylaminoCPA (8-butylamino-N^6-cyclopentyladenosine), to induce preconditioning was determined. In brief, myocytes were exposed to 8-butylaminoCPA at the indicated concentrations for 5 min, incubated for 10 min with agonist-free medium, and then exposed to simulated ischemia for 90 min. The extent of myocyte injury was quantitated at the end of the 90 min period by determinating the percentage of cells killed and the amount of creatine kinase (CK) released (units per milligram of cell protein). Data are means±SE of values from five independent experiments.
as §1
Media were then replaced with fresh media, which was then followed by exposure to 90-minute simulated ischemia and the data graphed.

[5] abbreviates: 8-SPT alone present during the hypoxia.
[6] abbreviates: in the presence of adenosine and 8-SPT (100 μM) during hypoxia.

SMILES strings stand for the structures.

Turning to `CSc1nc(N)c2ncn([C@@H]3O[C@H](COP(=O)(O)OP(=O)(O)OP(=O)(O)O)[C@@H](O)[C@H]3O)c2n1` [2-methylthioATP], the “apoptotic cell death caused by prolonged exposure to the agent” value in data set [1] is on record as “caused an increase in apoptotic cell death”. `Cn1c(=O)c2[nH]c(-c3ccc(S(=O)(=O)O)cc3)nc2n(C)c1=O` [8-SPT, 8-sulfophenyl-theophylline]: in data set [2] (setting [5]), the “% cells killed” value is listed as 31.6±1.5% and the CK released amounted to 29.6±1.2 unit/mg. Turning to `COc1ccccc1C=Cc1nc2c(c(=O)n(C)c(=O)n2C)n1C` [17b], in data set [3], the A1/A2 ratio is reported as 18.

On to `COc1cccc(C=Cc2nc3c(c(=O)n(C)c(=O)n3C)n2C)c1` [19b], for which, in data set [3], the A1/A2 ratio is listed as 64.

As for `Cn1c(=O)c2c(nc(/C=C/c3cccc(C(F)(F)F)c3)n2C)n(C)c1=O` [20b], the A1/A2 ratio in data set [3] was 25. Regarding `Cn1c(=O)c2c(nc(C=Cc3cccc([N+](=O)[O-])c3)n2C)n(C)c1=O` [21b], in data set [3], the A1/A2 ratio is reported as 11.

`Cn1c(=O)c2c(nc(C=Cc3cccc(N)c3)n2C)n(C)c1=O` [22b]: in data set [3], the A1/A2 ratio is listed as 30. For `Cn1c(=O)c2c(nc(C=Cc3cccc(F)c3)n2C)n(C)c1=O` [27b], the A1/A2 ratio in data set [3] is 190.

Consider `COc1ccc(C=Cc2nc3c(c(=O)n(C)c(=O)n3C)n2C)cc1` [29b], for which, in data set [3], the A1/A2 ratio is 44. Turning to `COc1ccc(C=Cc2nc3c(c(=O)n(C)c(=O)n3C)n2C)cc1OC` [32b], the A1/A2 ratio in data set [3] is recorded as 70. On to `COc1cc(C=Cc2nc3c([nH]2)c(=O)n(C)c(=O)n3C)cc(OC)c1` [33a], for which the A1/A2 ratio in data set [3] is recorded as 25. Turning to `COc1cc(C=Cc2nc3c(c(=O)n(C)c(=O)n3C)n2C)cc(OC)c1` [33b], in data set [3], the A1/A2 ratio is on record as greater than 200.

For the compound `Cn1c(=O)c2c(nc(C=Cc3cc(F)cc(F)c3)n2C)n(C)c1=O` [34b], in data set [3], the A1/A2 ratio is recorded as 230. With `COc1ccc(C=Cc2nc3c(c(=O)n(C)c(=O)n3C)n2C)c(OC)c1OC` [43b], in data set [3], the A1/A2 ratio is 34. `COc1cc(C=Cc2nc3c(c(=O)n(C)c(=O)n3C)n2C)cc(OC)c1OC` [44b]: in data set [3], the A1/A2 ratio is on record as 70 and the “A1/A2 ratio, value in square brackets” value is “[>5600]”.

As to `CCCn1c(=O)c2c(nc(C=Cc3cc(OC)cc(OC)c3)n2C)n(CCC)c1=O` [53b], in data set [3], the A1/A2 ratio was 110. Turning to `Nc1ncnc2c1ncn2[C@@H]1O[C@H](CO)[C@@H](O)[C@H]1O` [Adenosine], the CK released in data set [2] (adenosine 10 μM added during ninety-minute hypoxia, hypoxia alone 28.5±1.5) came out at 14.9±3 unit/mg; in data set [2] (setting [6]), 31±5 unit/mg. In addition, the “% cells killed” value was determined as 12±2% in data set [2] (adenosine 10 μM added during ninety-minute hypoxia, hypoxia alone 30±2) and 28±3% in data set [2] (setting [6]). For `OC[C@H]1O[C@@H](n2cnc3c(NC4CCCCC4)ncnc32)[C@H](O)[C@@H]1O` [CHA, N^6-cyclohexyladenosine], the “cardioprotective effect when present during prolonged hypoxia (CK released, % myocytes killed)” value in data set [2] is “able to protect the myocytes when present during the prolonged hypoxia”.

Take `CCCn1c(=O)c2[nH]c(C3CCCC3)nc2n(CCC)c1=O` [DPCPX, 8-cyclopentyl-1,3-dipropylxanthine]: in data set [2], the “effect of antagonist on A1 agonist (CCPA, CHA, ADAC)-induced cardioprotection” value is “blocked by the A1 antagonist DPCPX” and the “effect of antagonist on A3 agonist (IB-MECA, Cl-IB-MECA)-induced cardioprotection” value is recorded as “had no effect on the ability of IB-MECA or Cl-IB-MECA to mediate their cardioprotective effects”. Turning to `CNC(=O)[C@H]1O[C@@H](n2cnc3c(NCc4cccc(I)c4)ncnc32)[C@H](O)[C@@H]1O` [IB-MECA, N6-(3-iodobenzyl)adenosine-5′-N-methyluronamide], the “cardioprotective effect when present during prolonged hypoxia (CK released, % myocytes killed)” value in data set [2] is “capable of protecting the cardiac myocytes against hypoxia-induced injury”. As to `OC[C@@]12C[C@@H]1[C@@H](n1cnc3c(NCc4cccc(I)c4)ncnc31)[C@H](O)[C@@H]2O` [MRS1743], the “preconditioning / cardioprotective effect” value in data set [4] (agent alone, 5 min exposure before 90 min ischemia) was “exerting a potent preconditioning-like effect”. Regarding `CCOC(=O)C1=C(C)NC(c2ccccc2)=C(C(=O)OCC)C1/C=C/c1ccccc1` (stereo not shown) [MRS 1097, 3,5-Diethyl 2-methyl-6-phenyl-4-[2-phenyl-(E)-vinyl]-1,4-(1)-dihydropyridine-3,5-dicarboxylate], in data set [2], the “effect of antagonist on A1 agonist (CCPA, CHA, ADAC)-induced cardioprotection” value is “neither MRS 1191 nor MRS 1097 was able to block the CCPA-induced cardioprotection” and the “effect of antagonist on A3 agonist (IB-MECA, Cl-IB-MECA)-induced cardioprotection” value was “able to block the cardioprotective effect of Cl-IB-MECA”. For the compound `CNC(=O)C1OC(n2cnc3c(NCc4cccc(S(=O)(=O)O)c4)ncnc32)C(O)C1O` (stereo not shown) [MRS 1340], the “creatine kinase released during prolonged simulated ischemia” value in data set [2] (increasing concentrations, presence and absence of DPCPX (FIGS. 3A-3D)) is “cardioprotective effects”. On to `CC(C)NCC(O)COc1cccc2ccccc12` (stereo not shown) [Propranolol], for which the “effect of PLD inhibition on protective effect of MRS1760” value in data set [4] is on record as “also abolished the protective effect of MRS1760”.

`COc1ccc2c(c1)CC[C@@H]1[C@@H]2CC[C@]2(C)[C@@H](NCCCCCCN3C(=O)C=CC3=O)CC[C@@H]12` [U-73122]: in data set [4] (U-73122 (10 μM) with 1 μM 8-butylaminoCPA), the “effect of PLC inhibitor on protective response to 8-butylaminoCPA” value is “able to block the protective response to 8-butylaminoCPA”. Turning to `CC(=O)Nc1cccc(C=Cc2nc3c(c(=O)n(C)c(=O)n3C)n2C)c1` [compound 23], in data set [3], the A1/A2 ratio is on record as 240. In the case of `Cn1c(=O)c2c(nc(C=Cc3cccc(NC(=O)CCC(=O)O)c3)n2C)n(C)c1=O` [compound 24], the A1/A2 ratio in data set [3] is listed as 250. For `Cn1c(=O)c2c(nc(C=Cc3cccc(NC(=O)OC(C)(C)C)c3)n2C)n(C)c1=O` [compound 25], in data set [3], the A1/A2 ratio is 30. In the case of `Cn1c(=O)c2c(nc(C=Cc3cccc(N(C(=O)OC(C)(C)C)C(=O)OC(C)(C)C)c3)n2C)n(C)c1=O` [compound 26], the A1/A2 ratio in data set [3] was 15. Take `COc1cc(C=Cc2nc3c(c(=O)n(C)c(=O)n3C)n2C)cc(OC)c1O` [compound 35]: the A1/A2 ratio in data set [3] is given as 19. `COc1cc(C=Cc2nc3c(c(=O)n(C)c(=O)n3C)n2C)cc(OC)c1OC(C)=O` [compound 36]: the A1/A2 ratio in data set [3] is 93.

Consider `COc1cc(C=Cc2nc3c(c(=O)n(C)c(=O)n3C)n2C)cc(OC)c1OCCCCN` [compound 38], for which the A1/A2 ratio in data set [3] is recorded as 36. For the compound `COc1cc(C=Cc2nc3c(c(=O)n(C)c(=O)n3C)n2C)cc(OC)c1OCCCCNC(=O)OC(C)(C)C` [compound 39], the A1/A2 ratio in data set [3] was 42. As for `COc1cc(C=Cc2nc3c(c(=O)n(C)c(=O)n3C)n2C)cc(OC)c1OCC=CCN` [compound 40], the A1/A2 ratio in data set [3] is recorded as 28.

On to `COc1cc(C=Cc2nc3c(c(=O)n(C)c(=O)n3C)n2C)cc(OC)c1OCC=CCNC(C)=O` [compound 41], for which the A1/A2 ratio in data set [3] is listed as greater than 50. In the case of `COc1cc(C=Cc2nc3c(c(=O)n(C)c(=O)n3C)n2C)cc(OC)c1OCC=CCNC(=O)OC(C)(C)C` [compound 42], the A1/A2 ratio in data set [3] was greater than 40.

As to `C=CCn1c(=O)c2c(nc(C=Cc3cc(OC)c(OC)c(OC)c3)n2C)n(CC=C)c1=O` [compound 46], in data set [3], the A1/A2 ratio is 13 and the “A1/A2 ratio, value in square brackets” value is “[>6700]”.

For `CCO` [ethanol], the “effect of PLD inhibition on protective effect of MRS1760” value in data set [4] is on record as “abolished the protective effect of MRS1760”.
